Assay results reported in PubChem BioAssay (NCI).
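Test compounds were applied to cells in 96-well plates for 48 hours at 5 doses. GI50 = concentration required for 50% inhibition of growth. TGI marks complete inhibition of growth.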 *1 amine or outer side, *2 acyl side, *3 side chain or, on linkers, in order; H or OH if unused. Where a SMILES comes first, the peptide text is derived from it. Bridges are numbered along the chain shown (N, C = ends). Roman numbers before positions name the chains, in order. [ ]: non-standard residue; d: D form. Actinocin(9to1) = Cc1c2oc3c(C)ccc(C(=O)[*:1])c3nc-2c(C(=O)[*:2])c(N)c1=O; NMeV = CN[CH](C(=O)O)C(C)C; Sar = CNCC(=O)O

Legend:
Assay in all cases: growth of human tumour cells (NCI), 48 h
LOX IMVI melanoma = system: LOX IMVI melanoma
M14 melanoma = system: M14 melanoma
MALME-3M melanoma = system: MALME-3M melanoma
NCI-H23 lung = system: NCI-H23 lung
NCI-H460 lung = system: NCI-H460 lung
OVCAR-3 ovarian = system: OVCAR-3 ovarian
SF-295 CNS = system: SF-295 CNS
SK-MEL-5 melanoma = system: SK-MEL-5 melanoma
UO-31 renal = system: UO-31 renal
K-562 leukemia = system: K-562 leukemia

O=C(CCCCCCCCC(=O)N1C(=O)CC(=O)N(c2cccc(Cl)c2)C1=S)N1C(=O)CC(=O)N(c2cccc(Cl)c2)C1=S
TGI (LOX IMVI melanoma): > 100 µM | TGI (M14 melanoma): > 100 µM | TGI (MALME-3M melanoma): > 100 µM | TGI (NCI-H23 lung): > 100 µM | TGI (NCI-H460 lung): > 100 µM | TGI (OVCAR-3 ovarian): 65 µM | TGI (SF-295 CNS): > 100 µM | TGI (SK-MEL-5 melanoma): > 100 µM | TGI (UO-31 renal): > 100 µM

COc1ccc(-c2c(N)n(-c3cccc(C(=O)O)c3)c(=O)c3cc([N+](=O)[O-])ccc23)cc1
TGI (K-562 leukemia): > 100 µM | TGI (LOX IMVI melanoma): > 100 µM | TGI (M14 melanoma): > 100 µM | TGI (NCI-H23 lung): > 100 µM | TGI (NCI-H460 lung): > 100 µM | TGI (OVCAR-3 ovarian): > 100 µM | TGI (SF-295 CNS): > 100 µM | TGI (SK-MEL-5 melanoma): > 100 µM | TGI (UO-31 renal): > 100 µM

C#CC(F)(F)[C@]1(O)CC[C@H]2[C@@H]3CCC4=CC(=O)CCC4=C3[C@@H](c3ccc(C(C)=O)cc3)C[C@@]21C
GI50 (K-562 leukemia): 8.64 µM | TGI (K-562 leukemia): > 100 µM | GI50 (M14 melanoma): 16.9 µM | TGI (M14 melanoma): > 84.9 µM | GI50 (NCI-H460 lung): 21.5 µM | TGI (NCI-H460 lung): > 68.2 µM | GI50 (OVCAR-3 ovarian): 0.289 µM | TGI (OVCAR-3 ovarian): 42.8 µM | GI50 (SK-MEL-5 melanoma): 8.47 µM | TGI (SK-MEL-5 melanoma): 21.6 µM

Cc1c2oc3c(C)ccc(C(=O)NC4C(=O)NC(C(C)O)C(=O)N5CCCC5C(=O)N(C)CC(=O)N(C)C(C(C)C)C(=O)OC4C)c3nc-2c(C(=O)NC2C(=O)NC(C(C)O)C(=O)N3CCCC3C(=O)N(C)CC(=O)N(C)C(C(C)C)C(=O)OC2C)c(N)c1=O (configuration not stated) (I: TTP[Sar][NMeV] / II: TTP[Sar][NMeV]; ester I:1-I:C, II:1-II:C; linker I:N-II:N via Actinocin(9to1); configuration not given here)
TGI (K-562 leukemia): 3.43 µM | TGI (LOX IMVI melanoma): 0.984 µM | TGI (M14 melanoma): 3.77 µM | TGI (NCI-H23 lung): 4.8 µM | TGI (NCI-H460 lung): > 100 µM | TGI (OVCAR-3 ovarian): 4.71 µM | TGI (SF-295 CNS): > 100 µM | TGI (SK-MEL-5 melanoma): 1.74 µM | TGI (UO-31 renal): 19.6 µM

N#C[S-].[Nd+3].c1ccc(-c2ccccn2)nc1.c1ccc(-c2ccccn2)nc1.c1ccc(-c2ccccn2)nc1
GI50 (LOX IMVI melanoma): 4.23 µM | TGI (LOX IMVI melanoma): > 100 µM | GI50 (M14 melanoma): 2.26 µM | TGI (M14 melanoma): 5.96 µM | GI50 (MALME-3M melanoma): 18.5 µM | TGI (MALME-3M melanoma): 68.4 µM | GI50 (NCI-H23 lung): 25.8 µM | TGI (NCI-H23 lung): 98.7 µM | GI50 (NCI-H460 lung): 4.25 µM | TGI (NCI-H460 lung): 37.3 µM | GI50 (OVCAR-3 ovarian): 37.6 µM | TGI (OVCAR-3 ovarian): > 100 µM | GI50 (SF-295 CNS): 2.35 µM | TGI (SF-295 CNS): 5.8 µM | GI50 (SK-MEL-5 melanoma): 1.53 µM | TGI (SK-MEL-5 melanoma): 4.77 µM | GI50 (UO-31 renal): 2.19 µM | TGI (UO-31 renal): 5.5 µM

CC(=O)OC(OC(C)=O)n1cc(C=O)c2ccccc21
TGI (K-562 leukemia): > 100 µM | TGI (LOX IMVI melanoma): > 100 µM | TGI (M14 melanoma): > 100 µM | TGI (NCI-H23 lung): > 100 µM | TGI (NCI-H460 lung): > 100 µM | TGI (OVCAR-3 ovarian): > 100 µM | TGI (SF-295 CNS): > 100 µM | TGI (SK-MEL-5 melanoma): > 100 µM | TGI (UO-31 renal): > 100 µM

COC(=O)c1cc(C#N)[nH]c1-c1ccc(C)s1
TGI (K-562 leukemia): > 100 µM | TGI (M14 melanoma): > 100 µM | TGI (NCI-H23 lung): > 100 µM | TGI (NCI-H460 lung): > 100 µM | TGI (OVCAR-3 ovarian): > 100 µM | TGI (SF-295 CNS): > 100 µM | TGI (UO-31 renal): > 100 µM

Cc1cccc(NC(=O)C(=O)C(C(=O)c2ccccc2F)C2OC(=O)c3ccccc32)c1Cl (configuration not stated)
TGI (K-562 leukemia): > 100 µM | TGI (LOX IMVI melanoma): 43.3 µM | TGI (M14 melanoma): > 100 µM | TGI (NCI-H23 lung): 81.8 µM | TGI (NCI-H460 lung): > 100 µM | TGI (SF-295 CNS): > 100 µM | TGI (SK-MEL-5 melanoma): > 100 µM | TGI (UO-31 renal): > 100 µM

C1CCC(OC2CSC2)OC1 (configuration not stated)
TGI (K-562 leukemia): > 100 µM | TGI (LOX IMVI melanoma): > 100 µM | TGI (M14 melanoma): > 100 µM | TGI (NCI-H23 lung): > 100 µM | TGI (NCI-H460 lung): > 100 µM | TGI (OVCAR-3 ovarian): > 100 µM | TGI (SF-295 CNS): > 100 µM | TGI (SK-MEL-5 melanoma): > 100 µM | TGI (UO-31 renal): > 100 µM

O=c1c2cc(I)ccc2nc(Sc2ncccc2[N+](=O)[O-])n1Cc1ccccc1
TGI (K-562 leukemia): > 100 µM | TGI (LOX IMVI melanoma): > 100 µM | TGI (M14 melanoma): > 100 µM | TGI (NCI-H23 lung): > 100 µM | TGI (NCI-H460 lung): > 100 µM | TGI (OVCAR-3 ovarian): > 100 µM | TGI (SF-295 CNS): > 100 µM | TGI (SK-MEL-5 melanoma): 91.6 µM | TGI (UO-31 renal): > 100 µM

COP(=O)(OC)C(Cc1c[nH]c2ccccc12)NC(=O)OCc1ccccc1 (configuration not stated)
TGI (K-562 leukemia): > 100 µM | TGI (LOX IMVI melanoma): > 100 µM | TGI (M14 melanoma): > 100 µM | TGI (NCI-H23 lung): > 100 µM | TGI (NCI-H460 lung): > 100 µM | TGI (OVCAR-3 ovarian): > 100 µM | TGI (SF-295 CNS): > 100 µM | TGI (SK-MEL-5 melanoma): > 100 µM | TGI (UO-31 renal): > 100 µM

O=C1/C(=C/c2ccccc2[N+](=O)[O-])N=C(c2ccccc2)N1C1Nc2cc3c(cc2S1)NC(N1C(=O)/C(=C/c2ccccc2[N+](=O)[O-])N=C1c1ccccc1)S3 (configuration not stated)
TGI (K-562 leukemia): > 100 µM | TGI (LOX IMVI melanoma): > 100 µM | TGI (M14 melanoma): > 100 µM | TGI (NCI-H23 lung): > 100 µM | TGI (NCI-H460 lung): > 100 µM | TGI (OVCAR-3 ovarian): > 100 µM | TGI (SF-295 CNS): > 100 µM | TGI (SK-MEL-5 melanoma): > 100 µM | TGI (UO-31 renal): > 100 µM

Oc1[nH]c2ccccc2c1N=Nc1nc(-c2ccc(Cl)c(Cl)c2)cs1
TGI (LOX IMVI melanoma): > 100 µM | TGI (M14 melanoma): > 100 µM | TGI (NCI-H23 lung): > 100 µM | TGI (NCI-H460 lung): > 100 µM | TGI (OVCAR-3 ovarian): > 100 µM | TGI (SF-295 CNS): > 100 µM | TGI (SK-MEL-5 melanoma): > 100 µM | TGI (UO-31 renal): > 100 µM

CC(CO)C1C[C@H](O)[C@@]2(C)CC(=O)C=C(CO)[C@@H]2C1 (some centres not stated)
TGI (LOX IMVI melanoma): > 100 µM | TGI (M14 melanoma): > 100 µM | TGI (NCI-H23 lung): > 100 µM | TGI (NCI-H460 lung): > 100 µM | TGI (OVCAR-3 ovarian): > 100 µM | TGI (SF-295 CNS): > 100 µM | TGI (SK-MEL-5 melanoma): > 100 µM | TGI (UO-31 renal): > 100 µM

OC1(c2cc3ccccc3s2)CCCCC1
TGI (K-562 leukemia): > 100 µM | TGI (LOX IMVI melanoma): > 100 µM | TGI (M14 melanoma): > 100 µM | TGI (NCI-H23 lung): > 100 µM | TGI (NCI-H460 lung): > 100 µM | TGI (OVCAR-3 ovarian): > 100 µM | TGI (SF-295 CNS): > 100 µM | TGI (SK-MEL-5 melanoma): > 100 µM | TGI (UO-31 renal): > 100 µM

COC(=O)/C=C/c1cc(O)c2c(c1)[C@H](C(=O)OC)[C@@H](c1ccc(O)c(O)c1)O2
TGI (LOX IMVI melanoma): > 82.6 µM | TGI (M14 melanoma): > 45.2 µM | TGI (NCI-H23 lung): > 100 µM | TGI (NCI-H460 lung): 24.5 µM | TGI (SF-295 CNS): > 93.2 µM | TGI (SK-MEL-5 melanoma): 2.18 µM | TGI (UO-31 renal): > 63.5 µM
